The values below come from patent US7893067B2, “Cysteine protease inhibitors” (Medivir AB, priority 2007, dated 2011).

Structures are written as SMILES. pKi: −log10 of the molar value. Read-outs that look alike come from different tables or passages of the source.

A short description of series [1]: Metabolic stability in human hepatic cytosol assay. The class given is in vitro ADME. How it is done: Compounds of the invention and the indicated comparative examples were tested for metabolic stability in a cytosol assay in which the compounds were incubated with commercially available human hepatic cytosol fractions and the disappearance of the compound monitored by HPLC or LC/MS. Pooled human liver cytosol fractions are less likely to represent outlier individuals than blood from a single individual and can be stored frozen, unlike whole blood. The cytosol assay thus provides a consistent assay testbed as a guide to the stability of a compound in the in vivo environment, such as when exposed to whole blood.
In short, test compounds (2 μM) are incubated in pooled human liver cytosol (Xenotech LLC Lenexa US, 1 mg/mL protein in 0.1M phosphate buffer, pH 7.4) at 37° centigrade over a one hour period. The incubations are initiated by the addition of 1 mM NADPH co-factor. Timed sub-samples were taken at 0, 20, 40 and 60 minutes and “crash precipitated” by the addition of 3 volumes of ice-cold acetonitrile. The samples were centrifuged at reduced temperature and the supernatants were separated and analyzed by LC-MS-MS.

Another series concerns the target human cathepsin L (Homo sapiens, UniProt P07711). The experiment in a line: Cathepsin L Ki. The format is biochemical. As to the method: The procedure above with the following amendments is used for the determination of Ki for cathepsin L.
The enzyme is commercially available human cathepsin L (for example Calbiochem). The substrate is H-D-Val-Leu-Lys-AMC available from Bahcem. The assay buffer is 100 mM sodium acetate 1 mM EDTA, pH5.5) The DMSO stock (10 mM in 100% DMSO) is diluted to 10% in assay buffer. Enzyme is prepared at 5 nM concentration in assay buffer plus 1 mM dithiothreitol just before use. 2 ul of 10 mM inhibitor made up in 100% DMSO is dispensed into row A. 10 ul of 50 uM substrate (=1/200 dilution of 10 mM stock in DMSO, diluted in assay buffer)
(§1) Potential inhibitors are screened using the above assay with variable concentrations of test compound. Reactions were initiated by addition of enzyme to buffered solutions of substrate and inhibitor. Ki values were calculated according to equation 1
(§2) [formula] where v0 is the velocity of the reaction, V is the maximal velocity, S is the concentration of substrate with Michaelis constant of KM, and/is the concentration of inhibitor.

Series [2] deals with T1, baculovirus-expressed human cathepsin S (Homo sapiens, UniProt P25774).
T1 construct: made in house
Kind of series: Cathepsin S Ki determination. The format is biochemical. How it is done: 280 μl/well of 12.5% DMSO are added to rows B-H of two columns of a 96 deep well polypropylene plate. 70 μl/well of substrate is added to row A. 2×250 μl/well of assay buffer (100 mM Na phosphate, 100 mM NaCl, pH 6.5) is added to row A, mixed, and double diluted down the plate to row H. 100 μl/well of assay buffer is added to columns 2-5 and 7-12 of 4 rows of a 96 well V bottom polypropylene plate. 200 μl/well of assay buffer is added to columns 1 and 6. […] Add 90 μl assay buffer containing 1 mM DTT and 2 nM cathepsin S to each well of rows B-H and 180 μl to row A. Mix row A using a multichannel pipette and double dilute to row G. Mix row H and read in the fluorescent spectrophotometer. […] The second test compound is added to column 6 of the top row, the third to column 1 of the second row etc. Add 1 μl of comparator to column 6 of the bottom row. Mix column 1 and double dilute to column 5. Mix column 6 and double dilute to column 10. Using an 8-channel multistepping pipette set to 5×10 μl, distribute 10 μl/well of substrate to the 384 well assay plate. Distribute the first column of the substrate dilution plate to all columns of the assay plate starting at row A. The tip spacing of the multichannel pipette will correctly skip alternate rows. Distribute the second column to all columns starting at row B. Using a 12-channel multistepping pipette set to 4×10 μl, distribute 10 μl/well of inhibitor to the 384 well assay plate. Distribute the first row of the inhibitor dilution plate to alternate rows of the assay plate starting at A1. The tip spacing of the multichannel pipette will correctly skip alternate columns. Similarly, distribute the second, third and fourth rows to alternate rows and columns starting at A2, B1 and B2 respectively. Mix 20 ml assay buffer and 20 μl 1M DTT. Add sufficient cathepsin S to give 2 nM final concentration. Using the a distributor such as a Multidrop 384, add 30 μl/well to all wells of the assay plate and read in fluorescent spectrophotomoter such as an Ascent. Fluorescent readings, (excitation and emission wavelengths 390 nm and 460 nm respectively, set using bandpass filters) reflecting the extent of enzyme cleavage of the fluorescent substrate, notwithstanding the inhibitor, are linear rate fitted for each well. Fitted rates for all wells for each inhibitor are fitted to the competitive inhibition equation using SigmaPlot 2000 to determine V, Km and Ki values. Potential inhibitors are screened using the above assay with variable concentrations of test compound. Reactions were initiated by addition of enzyme to buffered solutions of substrate and inhibitor. Ki values were calculated according to equation 1 [formula] where v0 is the velocity of the reaction, V is the maximal velocity, S is the concentration of substrate with Michaelis constant of KM, and/is the concentration of inhibitor.

The target of series [3] is T2, human recombinant cathepsin K (Homo sapiens, UniProt P43235).
T2 construct: made in house; host or cells: not fixed: E coli, Pichia or Baculovirus systems named as options
T2 sequence (P43235 115-329): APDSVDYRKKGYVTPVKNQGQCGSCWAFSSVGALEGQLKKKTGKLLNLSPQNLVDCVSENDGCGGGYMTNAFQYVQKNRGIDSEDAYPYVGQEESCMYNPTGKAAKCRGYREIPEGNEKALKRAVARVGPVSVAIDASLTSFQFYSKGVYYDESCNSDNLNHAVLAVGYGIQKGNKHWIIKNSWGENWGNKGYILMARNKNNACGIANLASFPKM
Kind of series: Determination of cathepsin K proteolytic catalytic activity (Ki). The format is biochemical. As to the method: Convenient assays for cathepsin K are carried out using human recombinant enzyme, such as that described in PDB.
The recombinant cathepsin K can be expressed in a variety of commercially available expression systems including E coli, Pichia and Baculovirus systems. The purified enzyme is activated by removal of the prosequence by conventional methods.
Standard assay conditions for the determination of kinetic constants used a fluorogenic peptide substrate, typically H-D-Ala-Leu-Lys-AMC, and were determined in either 100 mM Mes/Tris, pH 7.0 containing 1 mM EDTA and 10 mM 2-mercaptoethanol or 100 mM Na phosphate, imM EDTA, 0.1% PEG4000 pH 6.5 or 100 mM Na acetate, pH 5.5 containing 5 mM EDTA and 20 mM cysteine, in each case optionally with […] as stabiliser. The enzyme concentration used was 5 nM. The stock substrate solution was prepared at 10 mM in DMSO. Screens were carried out at a fixed substrate concentration of 60 μM and detailed kinetic studies with doubling dilutions of substrate from 250 μM. The total DMSO concentration in the assay was kept below 3%. All assays were conducted at ambient temperature. Product fluorescence (excitation at 390 nm, emission at 460 nm) was monitored with a Labsystems Fluoroskan Ascent fluorescent plate reader. Product progress curves were generated over 15 minutes following generation of AMC product.
as §1, §2

For series [4] the following is noted: typical reference compounds (markers) for the Caco-2 assay; cited from earlier work.
The mark [5] stands for this setting: 2 μM in pooled human liver cytosol, 1 mg/mL protein, pH 7.4, 37°, 1 mM NADPH.
Where [6] appears, read: representative values from specific batches of compound/enzyme/assay occasion.

human cathepsin L, sequence (P07711 114-333): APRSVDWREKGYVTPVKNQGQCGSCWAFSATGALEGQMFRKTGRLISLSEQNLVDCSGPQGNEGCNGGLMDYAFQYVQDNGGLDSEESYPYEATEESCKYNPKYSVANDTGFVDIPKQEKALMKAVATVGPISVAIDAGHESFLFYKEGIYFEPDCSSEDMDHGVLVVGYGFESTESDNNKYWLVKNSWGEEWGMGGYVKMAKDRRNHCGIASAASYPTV
T1 sequence (P25774 115-331): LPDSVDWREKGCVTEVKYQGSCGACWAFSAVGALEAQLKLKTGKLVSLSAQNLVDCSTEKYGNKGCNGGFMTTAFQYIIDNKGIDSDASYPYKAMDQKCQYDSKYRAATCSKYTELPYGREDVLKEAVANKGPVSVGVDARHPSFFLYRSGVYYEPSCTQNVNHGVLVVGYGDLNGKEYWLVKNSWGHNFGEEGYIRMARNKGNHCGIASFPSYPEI

Usually half-life stands for the time in which the quantity being followed falls by half. On to `CC(C)C[C@H](NC(=O)c1ccc(-c2csc(N3CCN(C)CC3)n2)c(F)c1)C(=O)N1C[C@@H](Cl)[C@H]2OCC(=O)[C@H]21` [Example 11], for which the half-life at 2 μM in series [1] (setting [5]) amounted to 180 min.
The pKi is the negative decadic logarithm of the Ki, by convention in mol/L. As to `CN1CCN(c2nc(-c3ccc(C(=O)N[C@H](C(=O)N4C[C@@H](Cl)[C@H]5OCC(=O)[C@H]54)C4CCCCC4)cc3)cs2)CC1` [Example 7, N-[2-((3aS,6R,6aS)-6-Chloro-3-oxo-hexahydro-furo[3,2-b]pyrrole-4-yl)-1-S-cyclohexyl-2-oxo-ethyl]-4-[2-(4-methyl-piperazin-1-yl)-thiazol-4-yl]-benzamide], the pKi on human cathepsin L (Table 1, class symbols) is 5.30 to 6.00; at human cathepsin L (setting [6]), 5.92; in series [2] (Table 1, class symbols) it was 5.30 to 6.00; in series [2] (setting [6]), 5.77; in series [3] (Table 1, class symbols) it was more than 7.30; in series [3] (setting [6]), 8.38.
Regarding `Cc1sc(N2CCN(C)CC2)nc1-c1ccc(C(=O)N[C@@H](CC(C)C)C(=O)N2C[C@H](F)[C@H]3OCC(=O)[C@H]32)cc1` [Comparative Example 3, reference compound], the half-life at 2 μM in series [1] (setting [5]) was in the range of 100 to 150 min.
Still for that read-out and setting: with `CC(C)C[C@H](NC(=O)c1ccc(-c2csc(N3CCN(C)CC3)n2)cc1)C(=O)N1C[C@H](Cl)[C@H]2OCC(=O)[C@H]21` [Comparative Example 1, reference compound] the figure was 24 min.
As for `N[C@@H](Cc1ccccc1)C(=O)O` [L-Phenylalanine], in series [4], the “% absorption in man” value is 100%.
As for `OC[C@@H](O)[C@@H](O)[C@H](O)[C@H](O)CO` [Mannitol], the “% absorption in man” value in series [4] is 16%.
In the case of `CN1CCN(c2nc(-c3ccc(C(=O)N[C@@H](CC(C)(C)F)C(=O)N4C[C@@H](Cl)[C@H]5OCC(=O)[C@H]54)cc3)cs2)CC1` [Example 8, N—[(S)-1-((3aS,6R,6aS)-6-chloro-3-oxo-hexahydro-furo[3,2-b]pyrrole-4-carbonyl)-3-fluoro-3-methyl-butyl]-4-[2-(4-methyl-piperazin-1-yl)-thiazol-4-yl]benzamide], the pKi on human cathepsin L (Table 1, class symbols) was 5.30 to 6.00; on human cathepsin L (setting [6]), 5.54; in series [2] (Table 1, class symbols), less than 5.00; in series [2] (setting [6]) it was 4.89; in series [3] (Table 1, class symbols), more than 7.30; in series [3] (setting [6]), 8.48.
Turning to `Cc1sc(N2CCN(C)CC2)nc1-c1ccc(C(=O)N[C@@H](CC(C)C)C(=O)N2C[C@@H](Cl)[C@H]3OCC(=O)[C@H]32)cc1` [Example 5, N-[1-(6-chloro-3-oxo-hexahydro-furo[3,2-b]pyrrol-4-carbonyl)-3-methyl-butyl]-4-[5-methyl-2-(4-methyl-piperazin-1-yl)-thiazol-4-yl]-benzamide], the pKi is 6.00 to 6.30 on human cathepsin L (Table 1, class symbols); 6.06 at human cathepsin L (setting [6]); 5.00 to 5.30 in series [2] (Table 1, class symbols); 5.12 in series [2] (setting [6]); more than 7.30 in series [3] (Table 1, class symbols); 8.80 in series [3] (setting [6]). Besides, in series [1] (setting [5]), the half-life at 2 μM is 198 min.
For `CN(Cc1cnc2nc(N)nc(N)c2n1)c1ccc(C(=O)N[C@@H](CCC(=O)O)C(=O)O)cc1` [Methotrexate], in series [4], the “% absorption in man” value is on record as 20%.
Take `Cc1sc(N2CCN(C)CC2)nc1-c1ccc(C(=O)N[C@@H](CC(C)C)C(=O)N2CC[C@H]3OCC(=O)[C@H]32)cc1` [Comparative Example 2, reference compound]: the half-life at 2 μM in series [1] (setting [5]) amounted to 72 min. The cytosol half life result in series [1] (human liver cytosol) was “a little over an hour”.
Regarding `CC(C)C[C@H](NC(=O)c1ccc(-c2csc(N3CCN(C)CC3)n2)cc1)C(=O)N1C[C@@H](Cl)[C@H]2OCC(=O)[C@H]21` [Example 6, N—[(S)-1-((3aS,6R,6aS)-6-chloro-3-oxo-hexahydro-furo[3,2-b]pyrrole-4-carbonyl)-3-methyl-butyl]-4-[2-(4-methyl-piperazin-1-yl)-thiazol-4-yl]benzamide], the pKi was 6.00 to 6.30 on human cathepsin L (Table 1, class symbols); 6.05 on human cathepsin L (setting [6]); 5.30 to 6.00 in series [2] (Table 1, class symbols); 5.40 in series [2] (setting [6]); more than 7.30 in series [3] (Table 1, class symbols); 8.82 in series [3] (setting [6]). Also, in series [1] (setting [5]), the t1/2 minutes is more than 300 min. The half-life at 2 μM in series [1] (pooled human liver cytosol, pH 7.4, human liver cytosol, read-out: cytosol half life) was more than 300 min.
Consider `CC(C)C[C@H](NC(c1ccc(-c2ccc(S(C)(=O)=O)cc2)cc1)C(F)(F)F)C(=O)N1C[C@@H](Cl)[C@H]2OCC(=O)[C@H]21` (stereo in doubt) [Example 13, 6-Chloro-4-{4-methyl-2-[2,2,2-trifluoro-1-(4′-methanesulfonyl-biphenyl-4-yl)-ethylamino]-pentanoyl}-tetrahydro-furo[3,2-b]pyrrol-3-one], for which the pKi is 5.30 to 6.00 on human cathepsin L (Table 1, class symbols); less than 5.00 in series [2] (Table 1, class symbols); more than 7.30 in series [3] (Table 1, class symbols).
